# According to patent publication US9732060B2, “Aminotriazine derivative and pharmaceutical composition comprising the same” (Shionogi & Co., Ltd., priority 2013, dated 2017):
# Assays:
# [1] = biological target: human ether-a-go-go related gene (hERG) channel (Homo sapiens (Human), UniProt Q12809); assay: hERG test (whole cell patch clamp, IKr); assay type: cell-based; settings: CHO cells expressing hERG channel, IKr tail peak current
# Source text: For the purpose of assessing risk of an electrocardiogram QT interval prolongation of the compound of the present invention, effects of the compound of the present invention on delayed rectifier K+ current (IKr), which plays an important role in the ventricular repolarization process, was studied using CHO cells expressing human ether-a-go-go related gene (hERG) channel.
# After a cell was retained at a membrane potential of −80 mV by whole cell patch clamp method using an automated patch clamp system (QPatch: Sophion Bioscience A/S) and gave a leak potential of −50 mV, IKr induced by depolarization pulse stimulation at +20 mV for 2 seconds and, further, repolarization pulse stimulation at −50 mV for 2 seconds, was recorded. […] From the recording IKr, an absolute value of the tail peak current was measured based on the current value at the resting membrane potential using analysis software (Falster Patch; Sophion Bioscience A/S). Further, the % inhibition relative to the tail peak current before application of the compound of the present invention was calculated, and compared with the vehicle-applied group (0.1% dimethyl sulfoxide solution) to assess influence of the compound of the present invention on IKr.
# [2] = Metabolism stability test, pooled human hepatic microsomes; assay type: in vitro ADME; settings: remaining rate, human liver microsomes, 30 minutes, compound concentration 0.5 μmol/L
# Description: Using commercially available pooled human hepatic microsomes, a test compound is reacted for a constant time, a remaining rate is calculated by comparing a reacted sample and an unreacted sample, thereby, a degree of metabolism in liver is assessed.
# A reaction was performed (oxidative reaction) at 37° C. for 0 minute or 30 minutes in the presence of 1 mmol/L NADPH in 0.2 mL of a buffer (50 mmol/L tris-HCl pH 7.4, 150 mmol/L potassium chloride, 10 mmol/L magnesium chloride) containing 0.5 mg protein/mL of human liver microsomes. After the reaction, 50 μL of the reaction solution was added to 100 μL of a methanol/acetonitrile=1/1 (v/v) mixed and centrifuged at 3000 rpm for 15 minutes. The test compound in the supernatant was quantified by LC/MS/MS, and a remaining amount of the test compound after the reaction was calculated, letting a compound amount at 0 minute reaction time to be 100%.
# The remaining rate at the compound concentration 0.5 μmol/L are shown below.
# [3] = Solubility test (1% DMSO, artificial intestinal juice pH 6.8); assay type: physicochemical; settings: artificial intestinal juice pH 6.8 with 1% DMSO, 25 °C, fassgf or other biorelevant, kinetic from dmso stock, artificial intestinal juice pH 6.8, 25 degrees Celsius, read-out: Solubulity
# Description: The solubility of a compound was determined under a condition in which 1% DMSO was added. 10 mmol/L compound solution was prepared using DMSO, and then 2 μL of the compound solution was added to 198 μL of artificial intestinal juice in pH 6.8 (to 250 mL of 0.2 mol/L potassium dihydrogen phosphate reagent solution was added 118 mL of 0.2 mol/L NaOH reagent solution and water to provide a final volume of 1000 mL). After standing at 25 degrees Celsius for 18 hours, the mixed solution was filtrated with suction. The filtrate was diluted twice with methanol/water (1/1), and then a concentration in the filtration was measured with HPLC or LC/MS/MS by the absolute calibration method.
# Sequence of human ether-a-go-go related gene (hERG) channel (Q12809 whole entry): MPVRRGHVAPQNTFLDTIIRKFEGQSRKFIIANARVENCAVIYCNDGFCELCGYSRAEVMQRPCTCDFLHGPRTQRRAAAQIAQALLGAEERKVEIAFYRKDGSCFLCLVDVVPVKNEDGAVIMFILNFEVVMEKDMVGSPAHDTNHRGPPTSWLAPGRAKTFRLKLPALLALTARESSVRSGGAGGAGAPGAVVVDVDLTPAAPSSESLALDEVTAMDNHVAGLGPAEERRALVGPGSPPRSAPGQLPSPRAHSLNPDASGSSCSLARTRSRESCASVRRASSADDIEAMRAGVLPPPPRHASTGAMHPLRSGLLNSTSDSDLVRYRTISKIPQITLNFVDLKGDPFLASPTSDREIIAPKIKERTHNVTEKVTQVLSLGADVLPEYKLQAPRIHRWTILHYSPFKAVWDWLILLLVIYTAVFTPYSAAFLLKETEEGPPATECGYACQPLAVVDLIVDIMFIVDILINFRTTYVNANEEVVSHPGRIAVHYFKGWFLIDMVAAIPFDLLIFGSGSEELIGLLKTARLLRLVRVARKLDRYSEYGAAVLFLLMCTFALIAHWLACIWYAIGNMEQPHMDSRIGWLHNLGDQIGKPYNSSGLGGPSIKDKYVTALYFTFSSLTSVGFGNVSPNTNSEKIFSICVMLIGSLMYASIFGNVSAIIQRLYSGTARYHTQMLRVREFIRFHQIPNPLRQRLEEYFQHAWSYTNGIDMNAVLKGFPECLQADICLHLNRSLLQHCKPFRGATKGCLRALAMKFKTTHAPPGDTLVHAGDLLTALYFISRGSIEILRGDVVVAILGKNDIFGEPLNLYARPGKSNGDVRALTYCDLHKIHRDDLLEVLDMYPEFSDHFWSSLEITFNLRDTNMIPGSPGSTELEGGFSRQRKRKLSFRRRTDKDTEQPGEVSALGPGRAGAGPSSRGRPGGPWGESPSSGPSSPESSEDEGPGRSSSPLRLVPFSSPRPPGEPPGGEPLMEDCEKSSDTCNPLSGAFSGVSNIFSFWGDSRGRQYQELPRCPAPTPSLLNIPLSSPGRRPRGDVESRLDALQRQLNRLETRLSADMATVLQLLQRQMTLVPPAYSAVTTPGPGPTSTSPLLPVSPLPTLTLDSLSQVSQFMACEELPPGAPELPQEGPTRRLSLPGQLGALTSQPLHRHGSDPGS
Metabolism Stability [2] [%],solubility at 18 h [3] [µM],Structure (SMILES),hERG Inhibition [1] [%]
,,CC(C)(Cn1c(=O)[nH]/c(=N\c2ccc(Oc3ccc(Cl)cn3)cc2)n(Cc2ccc(Cl)cc2)c1=O)C(=O)O [Compound I-006],5.3
99,> 50,C[C@@H](C(=O)O)[C@H](C)n1c(=O)[nH]/c(=N\c2ccc(Oc3ccc(F)cn3)c(F)c2)n(Cc2ccc(Cl)cc2)c1=O [Compound I-002],7.3
